Test systems include A549; HCT-15; HOP-62; KM12; M14; NCI-H226; NCI/ADR-RES; OVCAR-3; OVCAR-8; PC-3; RPMI-8226; SF-539; SN12C; SR; U-251; UACC-257; UACC-62; UO-31; OVCAR-4; SK-MEL-2.
Common to all, as to assay: DTP human tumour cell line panel, 48 h

The term GI50 denotes the concentration at which growth is held to half of that of the control.

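Five concentrations, 48 hours, 96-well plates. GI50 = concentration required for 50% inhibition of growth.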 Calls of active or inactive are those of the source. No stated cut-off is given here; in the data, active = GI50 up to about 1.1 µM and inactive = higher. Some results are limits rather than exact numbers.

In the case of `CCOC(=O)C1CCC(=O)N1C(=O)c1cccc(Cl)c1` (stereo unspecified), the GI50 was > 100 µM (inactive) with A549; over 100 µM in the experiment on HCT-15; > 100 µM (inactive) with HOP-62; > 100 µM (inactive) with KM12; > 100 µM (inactive) with M14; > 100 µM (inactive) with NCI-H226. Moreover, the GI50 in the experiment on NCI/ADR-RES, with OVCAR-3, with OVCAR-8, with PC-3, in the experiment on RPMI-8226 and in the experiment with SF-539 was > 100 µM (inactive) in each case. Moreover, the GI50 in the experiment on SN12C was > 100 µM (inactive); in the experiment on SR it was > 100 µM (inactive); with U-251 it was > 100 µM (inactive); with UACC-257 it was > 100 µM (inactive); with UACC-62 it was 14.8 µM (inactive); in the experiment with UO-31, > 100 µM (inactive).
For `c1ccc([P+](CCCCCC[P+](c2ccccc2)(c2ccccc2)c2ccccc2)(c2ccccc2)c2ccccc2)cc1`, the GI50 was 7.41 µM (inactive) in the experiment with A549; over 100 µM in the experiment with HCT-15; 9.18 µM (inactive) in the experiment with HOP-62; 3.85 µM (inactive) in the experiment with KM12; 28.6 µM (inactive) with M14; 8.87 µM (inactive) with NCI-H226. Also, the GI50 is > 100 µM (inactive) with NCI/ADR-RES; 19.8 µM (inactive) in the experiment with OVCAR-3; 23.3 µM (inactive) in the experiment on OVCAR-4; 13.3 µM (inactive) in the experiment on OVCAR-8; 8.51 µM (inactive) with PC-3; 5.24 µM (inactive) in the experiment with SF-539. Also, the GI50 was 15.3 µM (inactive) in the experiment on SN12C; 21.1 µM (inactive) in the experiment with SR; 0.798 µM (active) with U-251; 1.59 µM (inactive) in the experiment with UACC-257; 18 µM (inactive) with UACC-62; > 100 µM (inactive) in the experiment with UO-31.
`CC(C)(C)OC(=O)NC(Cc1ccc(OCc2ccccc2)cn1)C(=O)N1CCCCC1` (stereo unspecified): the GI50 was 49.7 µM (inactive) with A549; 37.6 µM in the experiment with HCT-15; 49.9 µM (inactive) with HOP-62; 30.9 µM (inactive) with KM12; 37.8 µM (inactive) with M14; 20.9 µM (inactive) in the experiment on NCI/ADR-RES. The GI50 in the experiment with OVCAR-3 is 35.6 µM (inactive); in the experiment with OVCAR-8, 35.6 µM (inactive); in the experiment on PC-3, 22.2 µM (inactive); with RPMI-8226, 20.7 µM (inactive); in the experiment on SF-539 it was 41.3 µM (inactive); in the experiment on SK-MEL-2, 25.5 µM (inactive). For the same molecule, the GI50 in the experiment on SN12C was 37.8 µM (inactive); with SR it was 28.6 µM (inactive); in the experiment with U-251, 42.4 µM (inactive); with UACC-257, 19.6 µM (inactive); in the experiment on UACC-62, 29.1 µM (inactive); with UO-31 it was 27.9 µM (inactive).
As for `CN(C)CCCNc1ccc2nnn3c4ccc(OC(=O)c5ccccc5)cc4c(=O)c1c23`, the GI50 is 2.43 µM (inactive) in the experiment with A549; 5.36 µM with HCT-15; 5.92 µM (inactive) with HOP-62; 4.92 µM (inactive) in the experiment on KM12; 13.4 µM (inactive) in the experiment on M14; 12.5 µM (inactive) in the experiment on NCI/ADR-RES. The GI50 in the experiment with OVCAR-3 was 11.5 µM (inactive); with OVCAR-4 it was 1.66 µM (inactive); in the experiment with OVCAR-8 it was 4.55 µM (inactive); with PC-3, 8.34 µM (inactive); in the experiment with RPMI-8226, 3.29 µM (inactive); with SF-539, 6.76 µM (inactive). The GI50 is 15.9 µM (inactive) with SK-MEL-2; 5.06 µM (inactive) in the experiment on SN12C; 0.697 µM (active) with SR; 11.5 µM (inactive) in the experiment on U-251; 16 µM (inactive) in the experiment on UACC-257; 14.5 µM (inactive) in the experiment with UACC-62. In addition, the GI50 in the experiment on UO-31 is 4.14 µM (inactive).
In the case of `Cc1ccc(/C=C2\CN(C)CC3C(c4ccc(C)cc4)=C(C#N)C(=O)NC23)cc1` (stereo unspecified), the GI50 with A549 is > 50 µM (inactive); with HCT-15, over 50 µM; in the experiment with HOP-62, > 50 µM (inactive); in the experiment with KM12, > 50 µM (inactive); with M14, > 50 µM (inactive); with NCI-H226, > 50 µM (inactive). For the same molecule, the GI50 with NCI/ADR-RES, with OVCAR-3, with OVCAR-4, with OVCAR-8, in the experiment with PC-3 and in the experiment on RPMI-8226 was > 50 µM (inactive) throughout. Further, the GI50 with SK-MEL-2, in the experiment with SN12C, in the experiment on U-251, with UACC-257 and with UACC-62 was > 50 µM (inactive) each time.
As for `COC(=O)C1=C(C(=O)OC)C2(c3ccccc3)c3ccccc3C(=O)C1N2C1CCCCC1` (stereo unspecified), the GI50 in the experiment with A549 is 17.7 µM (inactive); with HCT-15 it was 48.2 µM; in the experiment with HOP-62 it was > 68.9 µM (inactive); in the experiment on KM12, 17.8 µM (inactive); in the experiment on M14 it was 43.3 µM (inactive); with NCI-H226, 50.4 µM (inactive). Moreover, the GI50 is > 82 µM (inactive) in the experiment with NCI/ADR-RES; 72.6 µM (inactive) in the experiment with OVCAR-3; 58.2 µM (inactive) in the experiment with OVCAR-4; 60.4 µM (inactive) in the experiment with OVCAR-8; 10.6 µM (inactive) in the experiment with PC-3; 6.9 µM (inactive) in the experiment on RPMI-8226. In addition, the GI50 in the experiment on SF-539 is 69.3 µM (inactive); in the experiment on SK-MEL-2, > 61.9 µM (inactive); with SN12C, 49.5 µM (inactive); in the experiment with U-251 it was 49.9 µM (inactive); in the experiment with UACC-257 it was 11.9 µM (inactive); with UACC-62 it was 61.8 µM (inactive). For the same molecule, in the experiment with UO-31, the GI50 is 13 µM (inactive).
As for `N=C(N)N/N=C/c1c(-c2ccccc2)nc2ccn3c(/C=N/N=C(N)N)c(-c4ccccc4)nc3n12`, the GI50 in the experiment with A549 was 51.2 µM (inactive); in the experiment with HCT-15, 38.4 µM; in the experiment on HOP-62 it was 55.1 µM (inactive); with KM12, 26.9 µM (inactive); in the experiment on M14, 49.3 µM (inactive); in the experiment on NCI-H226 it was > 100 µM (inactive). Also, the GI50 is > 100 µM (inactive) in the experiment with NCI/ADR-RES; 68.5 µM (inactive) in the experiment with OVCAR-3; > 100 µM (inactive) with OVCAR-4; 26.5 µM (inactive) in the experiment on OVCAR-8; 62.8 µM (inactive) in the experiment on PC-3; > 100 µM (inactive) in the experiment on RPMI-8226. Moreover, the GI50 was > 100 µM (inactive) in the experiment with SF-539; > 100 µM (inactive) with SK-MEL-2; 38.8 µM (inactive) in the experiment on SN12C; 58.5 µM (inactive) in the experiment with U-251; 23.5 µM (inactive) with UACC-257; 38.9 µM (inactive) in the experiment with UACC-62. For the same molecule, the GI50 in the experiment on UO-31 is 46.5 µM (inactive).
For the molecule `O=C1CC2(CCNCC2)C(=O)N1N1CCCC1`, the GI50 with A549 is > 100 µM (inactive); in the experiment with HCT-15 it was over 100 µM; with HOP-62, > 100 µM (inactive); in the experiment with KM12, > 100 µM (inactive); in the experiment on M14 it was > 100 µM (inactive); in the experiment with NCI-H226 it was > 100 µM (inactive). The GI50 with NCI/ADR-RES, in the experiment on OVCAR-3, in the experiment with OVCAR-8, in the experiment on PC-3, in the experiment on RPMI-8226 and in the experiment on SF-539 was > 100 µM (inactive) each time. Besides, the GI50 in the experiment with SN12C, with SR, in the experiment with U-251, with UACC-257, in the experiment on UACC-62 and in the experiment on UO-31 was > 100 µM (inactive) throughout.
For `O=c1[nH]nc(-c2ccccc2)n1-c1cccc([N+](=O)[O-])c1`, the GI50 in the experiment on A549 is > 100 µM (inactive); in the experiment on HCT-15, over 100 µM; with HOP-62, > 100 µM (inactive); in the experiment on KM12 it was > 100 µM (inactive); in the experiment on M14, > 100 µM (inactive); in the experiment with NCI-H226 it was > 100 µM (inactive). Moreover, the GI50 with NCI/ADR-RES, in the experiment on OVCAR-3, with OVCAR-4, in the experiment on OVCAR-8, in the experiment with RPMI-8226 and in the experiment on SF-539 was > 100 µM (inactive) throughout. Moreover, the GI50 in the experiment on SK-MEL-2, with SN12C, in the experiment with SR, in the experiment on U-251, in the experiment with UACC-257 and in the experiment on UACC-62 was > 100 µM (inactive) in each case. For the same molecule, in the experiment on UO-31, the GI50 was 38.5 µM (inactive).
As for `Cc1n[nH]c(=O)n1/N=C/c1ccco1`, the GI50 is > 100 µM (inactive) in the experiment with A549; over 100 µM with HCT-15; > 100 µM (inactive) with HOP-62; > 100 µM (inactive) in the experiment on KM12; > 100 µM (inactive) with M14; > 100 µM (inactive) in the experiment with NCI-H226. Further, the GI50 in the experiment with NCI/ADR-RES, with OVCAR-3, in the experiment with OVCAR-4, in the experiment on OVCAR-8, with PC-3 and in the experiment with RPMI-8226 was > 100 µM (inactive) throughout. In addition, the GI50 in the experiment with SF-539, with SK-MEL-2, in the experiment with SN12C, in the experiment with U-251, in the experiment on UACC-257 and with UACC-62 was > 100 µM (inactive) each time. For the same molecule, the GI50 in the experiment on UO-31 is > 100 µM (inactive).
As to `COc1ccc(C2c3cc4c(cc3OC(N3CCCCC3)C2C)OCO4)cc1` (stereo unspecified), the GI50 with A549 is 85.1 µM (inactive); with HCT-15, over 100 µM; in the experiment on HOP-62, > 100 µM (inactive); in the experiment on KM12, > 100 µM (inactive); in the experiment on M14, > 100 µM (inactive); in the experiment on NCI/ADR-RES, > 100 µM (inactive). For the same molecule, the GI50 with OVCAR-3, with OVCAR-8, with PC-3, in the experiment with RPMI-8226, with SF-539 and with SK-MEL-2 was > 100 µM (inactive) throughout. For the same molecule, the GI50 in the experiment on SN12C is > 100 µM (inactive); in the experiment with SR it was > 100 µM (inactive); with UACC-257, > 100 µM (inactive); in the experiment on UACC-62, > 100 µM (inactive); in the experiment with UO-31, 85.3 µM (inactive).

Values taken from ChEMBL document CHEMBL1201862, “PubChem BioAssay data set” (2004).
